Experimental data taken from patent US20050159345A1 (Boehringer Ingelheim International GmbH, priority 2002, published 2005).

How the values were obtained:
[1] = target: T1, HCV 1b NS3-NS4A heterodimer protein (UniProt P26662); assay: In vitro HCV NS3 protease assay (fluorogenic depsipeptide), genotype 1b; assay type: biochemical, HCV genotype 1b; conditions: read-out: IC50 HCV-1b; HCV 1b NS3-NS4A protease
T1 construct: fused on or other part: 28 extra N-terminal residues with a hexahistidine tag and an rTEV cleavage site
T1 sequence (P26662 1027-1657, one chain of several): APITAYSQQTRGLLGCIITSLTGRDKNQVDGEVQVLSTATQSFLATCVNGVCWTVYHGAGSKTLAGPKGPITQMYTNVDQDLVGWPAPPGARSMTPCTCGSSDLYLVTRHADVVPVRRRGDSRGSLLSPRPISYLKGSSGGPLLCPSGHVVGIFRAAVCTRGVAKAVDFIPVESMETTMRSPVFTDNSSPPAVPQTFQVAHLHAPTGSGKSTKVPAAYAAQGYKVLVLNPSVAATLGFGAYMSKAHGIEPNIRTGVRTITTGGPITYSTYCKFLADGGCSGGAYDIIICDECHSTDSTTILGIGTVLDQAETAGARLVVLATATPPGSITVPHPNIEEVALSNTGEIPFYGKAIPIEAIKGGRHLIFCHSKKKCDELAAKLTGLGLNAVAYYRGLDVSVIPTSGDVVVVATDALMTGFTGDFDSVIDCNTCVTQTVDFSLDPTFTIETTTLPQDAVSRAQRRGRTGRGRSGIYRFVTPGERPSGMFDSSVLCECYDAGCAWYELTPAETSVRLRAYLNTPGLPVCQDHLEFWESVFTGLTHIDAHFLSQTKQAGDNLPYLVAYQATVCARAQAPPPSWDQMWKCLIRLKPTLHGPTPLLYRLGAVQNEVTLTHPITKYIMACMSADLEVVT
From the text: For production of the HCV genotype 1b NS3-NS4A heterodimer protein, a full-length HCV cDNA was cloned by RT-PCR using RNA extracted from the serum of an HCV genotype 1b infected individual (provided by Dr. Bernard Willems, Hôpital St-Luc, Montréal, Canada). […] For HCV genotype 1a, the DNA encoding NS3-NS4A heterodimer protein was PCR-amplified (forward primer: 5′[sequence]3′ (SEQ ID No.3); reverse primer: 5′[sequence]3′ (SEQ ID No.4)) from the HCV genotype la strain H77 (provided by ViroPharma Inc., Exton, Pa., U.S.) and subcloned as described above. The cloning into the pFastBac™ HTa baculovirus expression vector generated a recombinant fusion protein containing an additional N-terminal 28 residues that comprised a hexahistidine tag and a rTEV protease cleavage site. The Bac-to-Bac™ baculovirus expression system (Gibco/BRL) was used to produce the recombinant baculovirus for protein expression.
His-tagged NS3-NS4A heterodimer protease was expressed by infecting Sf21 insect cells (Invitrogen) at a density of 10^6 cells/mL with the recombinant baculovirus at a multiplicity of infection of 0.1-0.2 at 27° C. The infected culture was harvested 48 to 64 h later by centrifugation at 4° C. The cell pellet was homogenized in 50 mM sodium phosphate, pH 7.5, 40% glycerol (w/v), 2 mM β-mercaptoethanol. His-NS3-NS4A heterodimer protease was then extracted from the cell lysate with 1.5% NP-40, 0.5% Triton X-100, 0.5M NaCl, and a DNase treatment. […]

[2] = target: T2, HCV 3a NS3-NS4A heterodimer protein (UniProt Q81258); assay: In vitro HCV NS3 protease assay (fluorogenic depsipeptide), genotype 3a; assay type: biochemical, HCV genotype 3a; conditions: read-out: IC50 HCV-3a; HCV 3a NS3-NS4A protease
T2 construct: fused on or other part: 28 extra N-terminal residues with a hexahistidine tag and an rTEV cleavage site
T2 sequence (Q81258 1033-1663): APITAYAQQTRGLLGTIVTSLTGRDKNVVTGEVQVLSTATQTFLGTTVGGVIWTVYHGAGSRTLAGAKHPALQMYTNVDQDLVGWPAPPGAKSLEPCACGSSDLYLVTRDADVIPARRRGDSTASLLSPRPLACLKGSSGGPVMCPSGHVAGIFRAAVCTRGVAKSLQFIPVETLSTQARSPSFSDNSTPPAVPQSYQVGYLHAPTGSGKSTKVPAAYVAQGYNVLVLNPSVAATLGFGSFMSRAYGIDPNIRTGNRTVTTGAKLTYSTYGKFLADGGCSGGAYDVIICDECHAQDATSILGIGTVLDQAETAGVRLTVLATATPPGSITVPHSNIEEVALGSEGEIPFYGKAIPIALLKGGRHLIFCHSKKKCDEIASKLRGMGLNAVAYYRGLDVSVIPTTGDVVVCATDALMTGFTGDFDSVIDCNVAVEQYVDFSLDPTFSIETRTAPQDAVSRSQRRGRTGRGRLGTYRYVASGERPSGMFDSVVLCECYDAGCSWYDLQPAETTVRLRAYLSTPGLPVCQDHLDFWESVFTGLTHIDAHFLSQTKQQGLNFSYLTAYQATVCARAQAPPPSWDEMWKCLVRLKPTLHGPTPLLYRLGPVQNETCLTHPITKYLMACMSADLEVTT
From the text: The NS3-NS4 protease genes of HCV genotypes 2b and 3a were amplified from RNA isolated from clinical samples of HCV-infected patients obtained from Dr. G. Steinmann (Germany) using RT-PCR. The primers used for the RT-PCR were 5′[…]3′ (SEQ ID No. 6) as the forward and 5′[…]3′ (SEQ ID No.7) as the reverse primer for the NS3-NS4A of HCV genotype 2b and; 5′[…]3′ (SEQ ID No. 8) as the forward and 5′[…]3′ (SEQ ID No. 9) as the reverse primer for HCV genotype 3a. Each primer contained a unique restriction site for subcloning the fragment in the bacterial expression vector pET11a. The cloning into the vector generated a recombinant fusion protein containing an additional N-terminal 28 residues that comprised a hexahistidine tag and a rTEV protease cleavage site. The recombinant plasmids were used to transform the bacterial strain BL21 DE3 pLysS for protein expression and recombinant protein expression was induced by the addition of IPTG. Following expression, the cells were collected by centrifugation at 4° C. and the cell pellet lysed in a buffer containing 50 mM sodium phosphate, 0.5M NaCl, 40% glycerol, 1.5% NP-40, 0.5% Triton X-100 and the soluble protein fraction was passed through a 5ml HiTrap chelating affinity column as described above. A poly(U)-Sepharose purification step can optionally be conducted in order to remove degradation products and contaminants. […]
(§1) The fluorescence was monitored using the BMG POLARstar Galaxy 96-well plate reader with an excitation filter of 320 nm, and an emission filter of 405 nm. The level of inhibition (% inhibition) of each well containing test compound was calculated with the following equation (FU=fluorescence unit): [formula]
The calculated % inhibition values were then used to determine IC50, slope factor (n) and maximum inhibition (Imax) by the non-linear regression routine NLIN procedure of SAS using the following equation: [formula] […]

[3] = target: T3, HCV 2a-c NS3-NS4A heterodimer protein (UniProt P26660); assay: In vitro HCV NS3 protease assay (fluorogenic depsipeptide), genotype 2a-c; assay type: biochemical, HCV genotype 2a-c; conditions: read-out: IC50 HCV-2a-c; HCV 2a-c NS3-NS4A protease
T3 sequence (P26660 1031-1661): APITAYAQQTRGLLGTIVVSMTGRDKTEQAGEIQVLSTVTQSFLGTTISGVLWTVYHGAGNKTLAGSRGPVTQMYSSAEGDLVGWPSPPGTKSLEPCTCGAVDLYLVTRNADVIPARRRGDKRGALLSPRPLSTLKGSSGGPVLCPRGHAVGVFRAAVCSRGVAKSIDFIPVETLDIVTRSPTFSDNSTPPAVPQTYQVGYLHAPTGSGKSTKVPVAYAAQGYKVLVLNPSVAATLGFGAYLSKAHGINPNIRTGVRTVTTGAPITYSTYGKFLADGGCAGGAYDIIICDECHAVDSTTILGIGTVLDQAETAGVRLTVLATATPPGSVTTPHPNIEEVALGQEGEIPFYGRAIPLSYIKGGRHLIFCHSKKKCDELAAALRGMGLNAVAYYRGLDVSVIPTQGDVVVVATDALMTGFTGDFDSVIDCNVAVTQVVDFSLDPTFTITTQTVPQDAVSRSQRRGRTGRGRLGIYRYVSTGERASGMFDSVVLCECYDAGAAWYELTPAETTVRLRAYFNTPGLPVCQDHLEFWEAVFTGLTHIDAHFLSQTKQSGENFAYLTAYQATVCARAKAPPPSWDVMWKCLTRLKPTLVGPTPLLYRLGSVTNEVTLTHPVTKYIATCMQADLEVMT
Procedure: The fluorogenic depsipeptide substrate used to assess inhibition of protease activity of the HCV 1a, 1b, 2b, 2a-c and 3a NS3-NS4A heterodimer protein was anthranilyl-DDIVPAbu[C(O)—O]-AMY(3-NO2)TW—OH (SEQ ID No.10). This substrate is cleaved between the aminobutyric (Abu) and the alanine residues. The sequence DDIVPAbu-AMYTW (SEQ ID No.11) is derived from the sequence DDIVPC—SMSYTW (SEQ ID No.12) corresponding to the NS5A/NS5B natural cleavage site. […] The protease activity was assayed in 50 mM Tris-HCl, pH 8.0, 0.25M sodium citrate, 0.01% n-dodecyl-β-D-maltoside, 1 mM TCEP. The assay was performed in a Microfluor®2 White U-Bottom Microtiter® plate. 5 μM of the substrate and various concentrations of the test compound were incubated with 1.5 nM of HCV 1a or 1b NS3-NS4A heterodimer protein for 45 minutes at 23° C. under gentle agitation. […] The reaction was terminated by the addition of a 1M 2-[N-morpholino]ethanesulfonic acid solution at pH 5.8.
as §1
The calculated % inhibition values were then used to determine IC50, slope factor (n) and maximum inhibition (Imax) by the non-linear regression routine NLIN procedure of SAS using the following equation: [formula] Inhibition Constant (Ki) Determination and mode of Inhibition

Q: `COc1ccc2c(O[C@@H]3C[C@H]4C(=O)N[C@]5(C(=O)O)CC5/C=C\CCCCC[C@H](NC(=O)OC(C)(C)C)C(=O)N4C3)cc(-c3csc(NC(C)=O)n3)nc2c1` (stereo partly drawn) [III] was tested. Which IC50 [1] did it give?
A: 4.2 nM

Q: What about the IC50 [2] of the same molecule?
A: 190 nM

Q: What about the IC50 [3] of the same molecule?
A: 490 nM

Q: What does the source list for `COc1ccc2c(O[C@@H]3C[C@H]4C(=O)N[C@]5(C(=O)O)CC5/C=C\CCCCC[C@H](NC(=O)OC(C)(C)C)C(=O)N4C3)cc(-c3ccccc3)nc2c1` (stereo partly drawn) [II]?
A: IC50 [1]: 8.9 nM; IC50 [2]: 360 nM; IC50 [3]: 680 nM

Q: Which results are given for `COc1ccc2c(O[C@@H]3C[C@H]4C(=O)N[C@]5(C(=O)O)CC5/C=C\CCCCC[C@H](NC(=O)OC5CCCC5)C(=O)N4C3)cc(-c3csc(NC(C)C)n3)nc2c1` (stereo partly drawn) [IV]?
A: IC50 [1]: 3.4 nM; IC50 [2]: 280 nM; IC50 [3]: 200 nM
